“And” between values parts separate entries of the source, which are not always exact repeats. Identical values can stand only once. Like-named read-outs stand apart in the source and are kept apart here.
What was measured:
[1] = system: MS2 bacteriophage (ATCC 15597-B1); assay: MS2 virus inactivation by bubbling gas through 0.17 M NaCl solution in bubble column evaporator, double layer plaque assay; format: cell-based; details: for MS2 virus inactivation, log reduction: inlet gas temperature 200° C., after 37.5 min; for MS2 virus log reduction: as time approached 10 mins
Protocol: MS2 bacteriophage (ATCC 15597-B1) was chosen as the model virus to evaluate the efficiency of methods of inactivation of viruses. MS2 is usually quantified by counting infectious units via a standard plaque assay that is commonly used for detection of MS2 in treated drinking water and waste-water.
Analysis of virus inactivation was carried out using the optimized Double Layer Plaque Assay technique described in Cormier et al, that detects only infectious viruses by using E. coli as their host.
A specific optimized Double Layer Plaque Assay technique as described in Cormier et al was used to assess the concentration of active MS2 viruses. This plaque assay method is commonly used for detection of MS2 in treated drinking water, wastewater and marine water. The water quality is assessed based on the ability of bacteriophages to kill the host bacteria and allow phages to propagate in a confluent lawn of bacterial host cells immobilized in a layer of agar.
A freeze-dried vial of MS2 bacteriophage was acquired from the American Type Culture Collection. Bacteriophage MS2 (ATCC 15597-B1) was replicated using Escherichia coli C-3000 (ATCC 15597) according to the International Standard ISO 10705-1 [31] and the Ultraviolet disinfection guidance manual of the United States Environmental Protection Agency. The zeta-potential of the MS2 viruses in 0.17 M NaCl solution with different gas bubbles was measured using a Malvern Zetasizer nano series instrument.
The gases were pumped through the electrical heater that maintained the gas temperature just above the sinter surface at the base of the bubble column evaporator at a particular temperature, depending on the experiment. The base of the bubble column evaporator was fitted with a 40-100 μm pore size glass sinter (type 2) of 135 mm diameter.
Once the aqueous solution was poured into the column, the temperature of the solution was measured with a thermocouple in the centre of the column solution. The gas was then passed through the sinter into the 300 ml solution to inactivate MS2 viruses or E. coli (in separate experiments). […]
Further experiments were also performed using MS2 virus in a 0.17 M NaCl solution (initial temperature of about 22° C.) in the BCE, with CO2 gas at different inlet temperatures (205° C., 150° C., 100° C., 11° C. and 20° C.) and with CO2 gas having an inlet temperature of 22° C. at different flow rates (27 l/min and 20 l/min).
Once the solutions with known concentration of coliphage and E. coli were prepared, experiments were conducted to study the inactivation of the coliphage with different gases and inlet gas temperatures. 1.3 ml samples were collected from 10 to 15 mm above the central area of the sinter every 6 minutes during 36 minutes for the virus experiments and every 2 min for the E. coli experiments. 0.07 ml of each sample was spotted in triplicate following the double layer plaque assay technique.
Plaque counts were performed for all 18-21 plates of each of the experiments. The mean and the standard deviation of each triplicated sample using a virus or bacteria survival factor: Log10(PFU/PFU0), where PFU0 is the initial number of PFU per sample and PFU is the PFU per sample after an exposure time in minutes. When plotted, a second order polynomial distribution was applied to fit the survival curves.

[2] = system: Escherichia coli C-3000 (ATCC15597); assay: E. coli inactivation by bubbling gas through 0.17 M NaCl solution in bubble column evaporator, plaque assay; format: cell-based
[3] = pH of the solution measured during bubbling experiments; format: physicochemical; details: for pH: […] NaCl
Protocol: The solubility at 52° C. (for viruses) and 43° C. (for E. coli) of the different gases used were obtained from literature values (http://www.engineeringtoolbox.com). The pH values were measured during the experiments and the Zeta potential values were measured during the experiments at a virus concentration of 10^8 per ml and E. coli concentration of 10^7 per ml.

[4] = cited from earlier work
[5] = system: MS2 bacteriophage; details: pH 4.2, stirred beaker, […] NaCl, 22° C., no bubbling
Protocol: (§1) To evaluate the effect of solution pH on the inactivation of MS2 bacteriophage and E. coli experiments, comparison tests using 0.17 M NaCl solution at pH 4.1, were carried out in a separate beaker, in a water bath. During these experiments, samples were regularly taken out from the beaker and analysed as before.
(§2) To determine if the reduction in pH, due to dissolved CO2 (equations 1, 2, 3 and 4), was related to its disinfectant effects, two experiments with carbonic acid (H2CO3) at pH 4.2 were conducted in a continuous stirred beaker, one for viruses and another one for bacteria.
(§3) Carbonic acid (H2CO3) was produced by bubbling 27 l/min. of pure CO2 through the 0.17 M NaCl solution during 10 minutes at 22° C. […] Some authors describe a small, low pH inactivation effect on microbial cells, since membranes stop protons from penetration but low pH makes membrane more permeable to other substances like CO2 due to the chemical modification on the phospholipid bilayer of membranes.

[6] = system: E. coli; details: pH 4.2, stirred beaker, […] NaCl, 22° C., no bubbling
Protocol: as §1, §2, §3

[7] = system: MS2 virus; details: 1 to 2 M of NaCl; cited from earlier work
[8] = system: E. coli; details: cited from earlier work
[9] = inlet gas temperature 150° C., after 10 min
[10] = E. coli experiments, gases at 150° C. (combustion gas 58° C.)
[11] = MS2 experiments, gases at 200° C. (combustion gas 60° C.)
[12] = in water at 43° C., 1 atm (E. coli section)
[13] = in water at 52° C., 1 atm (virus section)

Q: Which “MS2 virus inactivation, log reduction” value [1] does the source give for `[Ar]` [Argon] here?
A: The value was 1.5 log.

Q: And the “E. coli inactivation, log reduction” value [2, 9]?
A: Its value is 0.40 log.

Q: And the pH [3, 10]?
A: Its pH is 6.0.

Q: And the pH [3, 11]?
A: The pH was 6.0.

Q: What about the Solubility [4, 12] of the same compound?
A: Its Solubility is 0.040 Grams dissolved in 1 Kg of wat.

Q: What about the Solubility [4, 13] of the same compound?
A: Its Solubility is 0.035 Grams dissolved in 1 Kg of wat.

Q: Which MS2 virus log-reduction ([1]; 150° C. inlet CO2 temperature, after 7 min) does the source give for `O=C=O` [Carbon dioxide] here?
A: Its MS2 virus log-reduction is 2.3 log.

Q: And the MS2 virus log-reduction ([1]; CO2 11° C. inlet temperature, 9° C. column temperature, after 6.5 minutes)?
A: The MS2 virus log-reduction was 0.1 log.

Q: What about the “MS2 virus inactivation rate” value ([1]; CO2 (100%) at 200° C., in 3.5 minutes) of the same compound?
A: The value was 2.7 log.

Q: What about the MS2 virus log-reduction ([1]; CO2 at 22° C., 20 l/min, after 2 minutes) of the same compound?
A: The MS2 virus log-reduction was 0.35 log.

Q: What about the “MS2 virus log reduction” value ([1]; CO2 at 22° C., 20 l/min) of the same compound?
A: Its value is “about 1 log”.

Q: And the MS2 virus log-reduction ([1]; CO2 at 22° C., 27 l/min, after 2 minutes)?
A: Its MS2 virus log-reduction is 0.62 log.

Q: And the “MS2 virus log reduction” value ([1]; CO2 at 22° C., 27 l/min)?
A: Its value is “about 1 log”.

Q: And the MS2 virus log-reduction ([1]; CO2 at 200° C., after 3 min)?
A: The MS2 virus log-reduction was 3 log.

Q: And the “MS2 virus log inactivation” value ([1]; CO2 at 200° C., within 5 min)?
A: The value was 2.0 log.

Q: What about the MS2 virus reduction ([1]; CO2 bubbles at room temperature, 10 min) of the same compound?
A: The MS2 virus reduction was 1 log.

Q: And the “E. coli inactivation, log reduction” value ([2]; inlet gas temperature 150° C., after 10 min, listed as CO2)?
A: The value was 2.84 log and 2.6 log.

Q: And the pH [3, 10]?
A: The pH was 4.0.

Q: What about the pH [3, 11] of the same compound?
A: Its pH is 4.0.

Q: And the “pH of the water when using CO2 gas in the bubble column” value ([3]; dropped from 5.9 in less than 45 seconds)?
A: Its value is 4.2.

Q: And the Solubility [4, 12]?
A: The Solubility was 0.950 Grams dissolved in 1 Kg of wat.

Q: And the Solubility [4, 13]?
A: The Solubility was 0.800 Grams dissolved in 1 Kg of wat.

Q: Which results are given for `O=C(O)O` [Carbonic acid (H2CO3), Carbonic acid]?
A: log virus reduction [5]: 0.002 log; E. coli log removal [6]: 0.08 log

Q: What does the source list for `[Cl-].[Na+]` [NaCl]?
A: stability of MS2 virus in the presence of NaCl [7]: stable; inactivation of E. coli by NaCl solutions [8]: do not inactivate E. coli

Q: With `N#N` [Nitrogen] as the compound, how does the “MS2 virus inactivation, log reduction” value [1] read?
A: Its value is 1.5 log.

Q: What about the “E. coli inactivation, log reduction” value [2, 9] of the same compound?
A: The value was 1.74 log and 1.5 log.

Q: With `O=O` [Oxygen] as the compound, how does the “MS2 virus inactivation, log reduction” value [1] read?
A: Its value is 1.5 log.

Q: And the E. coli reduction ([2]; oxygen at 150° C. inlet gas temperature as printed)?
A: The E. coli reduction was 0.65 log.

Q: And the “E. coli inactivation, log reduction” value ([2]; oxygen bubbles at 150° C., after 3.5 minutes)?
A: The value was 2.90 log.

Q: And the pH [3, 10]?
A: Its pH is 6.1.

Q: What about the pH [3, 11] of the same compound?
A: The pH was 6.

Q: And the Solubility [4, 12]?
A: Its Solubility is 0.030 Grams dissolved in 1 Kg of wat.

Q: What about the Solubility [4, 13] of the same compound?
A: The Solubility was 0.027 Grams dissolved in 1 Kg of wat.
